Source: patent US20250145633A1, “SUBSTITUTED FURANOPYRIMIDINE COMPOUNDS AS PDE1 INHIBITORS” (Dart NeuroScience, LLC, priority 2017, published 2025)

Target: human PDE1B enzyme (Homo sapiens (Human), UniProt Q01064)
Test: IMAP TR-FRET PDE1B enzymatic assay
Type: biochemical
Conditions: negative log of half-maximal molar inhibitory concentration, 200 nM FAM-cAMP, values given as bins; for IC50: read-out: PDE1b (pIC50) (converted)
Summary of the method: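 Full-length GST-tagged human PDE1B (250 pg/well) in IMAP BSA buffer with 10 U/ml calmodulin and 2.5 mM CaCl2; compound pre-incubated 5 min at room temperature, then 200 nM (final) FAM-cAMP for 30 min. IMAP binding reagent/Tb added, 1 h; TR-FRET 520/490 ratio read. IC50 from sigmoidal dose-response fit.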

Molecule `Cc1cnc(CNC(=O)c2c(C)oc3ncnc(NC4(C)CC4)c23)o1` [Example 448, 6-Methyl-N-[(5-methyl-1,3-oxazol-2-yl)methyl]-4-[(1-methylcyclopropyl)amino]furo[2,3-d]pyrimidine-5-carboxamide] has an IC50 of 10 to 100 nM.

With `COc1nccc(CNC(=O)c2c(C)oc3ncnc(NC4(C)CC4)c23)n1` [Example 449, N-[(2-Methoxypyrimidin-4-yl)methyl]-6-methyl-4-[(1-methylcyclopropyl)amino]furo[2,3-d]pyrimidine-5-carboxamide] the IC50 was 10 to 100 nM.

`Cc1oc2ncnc(NC3(C)CC3)c2c1C(=O)NCc1ccc(C(F)(F)F)cn1` [Example 450, 6-Methyl-4-[(1-methylcyclopropyl)amino]-N-{[5-(trifluoromethyl)pyridin-2-yl]methyl}furo[2,3-d]pyrimidine-5-carboxamide] was tested, and the “PDE1b (pIC50)” value was greater than 8.

`Cc1coc(NC(=O)c2c(C)oc3ncnc(NC4(C)CC4)c23)n1` [Example 451, 6-Methyl-N-(4-methyl-1,3-oxazol-2-yl)-4-[(1-methylcyclopropyl)amino]furo[2,3-d]pyrimidine-5-carboxamide] showed an IC50 of 10 to 100 nM.

In the case of `Cc1noc(NC(=O)c2c(C)oc3ncnc(NC4(C)CC4)c23)n1` [Example 452, 6-Methyl-N-(3-methyl-1 2 4-oxadiazol-5-yl)-4-[(1-methylcyclopropyl)amino]furo[2,3-d]pyrimidine-5-carboxamide], the IC50 is reported as 10 to 100 nM.

With `Cc1nc(NC(=O)c2c(C)oc3ncnc(NC4(C)CC4)c23)cs1` [Example 453, 6-Methyl-N-(2-methyl-1,3-thiazol-4-yl)-4-[(1-methylcyclopropyl)amino]furo[2,3-d]pyrimidine-5-carboxamide] the IC50 was 10 to 100 nM.

In the case of `Cc1nsc(NC(=O)c2c(C)oc3ncnc(NC4(C)CC4)c23)n1` [Example 454, 6-Methyl-N-(3-methyl-1,2,4-thiadiazol-5-yl)-4-[(1-methylcyclopropyl)amino]furo[2,3-d]pyrimidine-5-carboxamide], the “PDE1b (pIC50)” value is reported as greater than 8.

For `Cc1ncnc2c1CCN(C(=O)c1c(C)oc3ncnc(NC4(C)CC4)c13)C2` [Example 455, 6-Methyl-5-f{4-methyl-5H,6H,7H,8H-pyrido[3,4-d]pyrimidine-7-carbonyl}-N-(1-methylcyclopropyl)furo[2,3-d]pyrimidin-4-amine], the IC50 was 10 to 100 nM.

With `Cc1oc2ncnc(NC3(C)CC3)c2c1C(=O)Nc1cnn(C2CCOCC2)c1` [Example 456, 6-Methyl-4-[(1-methylcyclopropyl)amino]-N-[1-(oxan-4-yl)-1H-pyrazol-4-yl]furo[2,3-d]pyrimidine-5-carboxamide] the IC50 was 10 to 100 nM.

Work on `Cc1oc2ncnc(NC3(C)CC3)c2c1C(=O)NCc1noc(C(F)(F)F)n1` [Example 457, 6-Methyl-4-[(1-methylcyclopropyl)amino]-N-{[5-(trifluoromethyl)-1,2,4-oxadiazol-3-yl]methyl}furo[2,3-d]pyrimidine-5-carboxamide] yielded an IC50 of 10 to 100 nM.

With `Cc1ccnc(CNC(=O)c2c(C)oc3ncnc(NC4(C)CC4)c23)n1` [Example 458, 6-Methyl-4-[(1-methylcyclopropyl)amino]-N-[(4-methylpyrimidin-2-yl)methyl]furo[2,3-d]pyrimidine-5-carboxamide] the IC50 was 10 to 100 nM.

With `Cc1cc(C)nc(CNC(=O)c2c(C)oc3ncnc(NC4(C)CC4)c23)n1` [Example 459, N-[(4,6-Dimethylpyrimidin-2-yl)methyl]-6-methyl-4-[(1-methylcyclopropyl)amino]furo[2,3-d]pyrimidine-5-carboxamide] the IC50 was 10 to 100 nM.

With `Cc1cnc(CNC(=O)c2c(C)oc3ncnc(NC4(C)CC4)c23)cn1` [Example 460, 6-Methyl-4-[(1-methylcyclopropyl)amino]-N-[(5-methylpyrazin-2-yl)methyl]furo[2,3-d]pyrimidine-5-carboxamide] the “PDE1b (pIC50)” value was greater than 8.

Work on `Cc1nc(CNC(=O)c2c(C)oc3ncnc(NC4(C)CC4)c23)no1` [Example 461, 6-Methyl-N-[(5-methyl-1,2,4-oxadiazol-3-yl)methyl]-4-[(1-methylcyclopropyl)amino]furo[2,3-d]pyrimidine-5-carboxamide] yielded an IC50 of 10 to 100 nM.

`COC(=O)c1cnc(C2CN(C(=O)c3c(C)oc4ncnc(NC5(C)CC5)c34)C2)nc1` [Example 462, Methyl 2-(1-{6-methyl-4-[(1-methylcyclopropyl)amino]furo[2,3-d]pyrimidine-5-carbonyl}azetidin-3-yl)pyrimidine-5-carboxylate] was tested, and the IC50 was 100 to 1000 nM.

In the case of `Cc1oc2ncnc(NC3(C)CC3)c2c1C(=O)NCc1nnc2ccc(C(F)(F)F)cn12` [Example 463, 6-Methyl-4-[(1-methylcyclopropyl)amino]-N-{[6-(trifluoromethyl)-[1,2,4]triazolo[4,3-a]pyridin-3-yl]methyl}furo[2,3-d]pyrimidine-5-carboxamide], the IC50 is reported as 10 to 100 nM.

With `Cc1oc2ncnc(NC3(C)CC3)c2c1C(=O)NCc1noc(C2CC2)n1` [Example 464, N-[(5-Cyclopropyl-1,2,4-oxadiazol-3-yl)methyl]-6-methyl-4-[(1-methylcyclopropyl)amino]furo[2,3-d]pyrimidine-5-carboxamide] the “PDE1b (pIC50)” value was greater than 8.

`Cc1oc2ncnc(NC3(C)CC3)c2c1C(=O)N1CCc2c(ncnc2OC(C)C)C1` [Example 465, 6-Methyl-N-(1-methylcyclopropyl)-5-[4-(propan-2-yloxy)-5H,6H,7H,8H-pyrido[3,4-d]pyrimidine-7-carbonyl]furo[2,3-d]pyrimidin-4-amine] was tested, and the IC50 was 10 to 100 nM.

Molecule `Cc1ccnc(CNC(=O)c2c(C)oc3ncnc(NC4(C)CC4)c23)c1` [Example 466, 6-Methyl-4-[(1-methylcyclopropyl)amino]-N-[(4-methylpyridin-2-yl)methyl]furo[2,3-d]pyrimidine-5-carboxamide] has an IC50 of 10 to 100 nM.

In the case of `Cc1cnc(CNC(=O)c2c(C)oc3ncnc(NC4(C)CC4)c23)s1` [Example 467, 6-Methyl-N-[(5-methyl-1,3-thiazol-2-yl)methyl]-4-[(1-methylcyclopropyl)amino]furo[2,3-d]pyrimidine-5-carboxamide], the “PDE1b (pIC50)” value is reported as greater than 8.

For `Cc1nnc(CNC(=O)c2c(C)oc3ncnc(NC4(C)CC4)c23)s1` [Example 468, 6-Methyl-N-[(5-methyl-1,3,4-thiadiazol-2-yl)methyl]-4-[(1-methylcyclopropyl)amino]furo[2,3-d]pyrimidine-5-carboxamide], the IC50 was 10 to 100 nM.

In the case of `Cc1oc2ncnc(NC3(C)CC3)c2c1C(=O)N(C)c1cnn(C)c1` [Example 469, N,6-Dimethyl-N-(1-methyl-1H-pyrazol-4-yl)-4-[(1-methylcyclopropyl)amino]furo[2,3-d]pyrimidine-5-carboxamide], the IC50 is reported as 100 to 1000 nM.

Molecule `Cc1oc2ncnc(NC3(C)CC3)c2c1C(=O)N(C)c1cnn(C(C)C)c1` [Example 470, N,6-Dimethyl-4-[(1-methylcyclopropyl)amino]-N-[1-(propan-2-yl)-1H-pyrazol-4-yl]furo[2,3-d]pyrimidine-5-carboxamide] has an IC50 of 100 to 1000 nM.

Work on `Cc1oc2ncnc(NC3(C)CC3)c2c1C(=O)N1CCc2cncnc2C1` [Example 471, 6-Methyl-N-(1-methylcyclopropyl)-5-f{5H,6H,7H,8H-pyrido[3,4-d]pyrimidine-7-carbonyl}furo[2,3-d]pyrimidin-4-amine] yielded an IC50 of 10 to 100 nM.

`Cc1oc2ncnc(NC3(C)CC3)c2c1C(=O)Nc1cnn(Cc2ccccn2)c1` [Example 472, 6-Methyl-4-[(1-methylcyclopropyl)amino]-N-[1-(pyridin-2-ylmethyl)-1H-pyrazol-4-yl]furo[2,3-d]pyrimidine-5-carboxamide] showed an IC50 of 10 to 100 nM.

Work on `Cc1oc2ncnc(NC3(C)CC3)c2c1C(=O)Nc1cnn(-c2ncccn2)c1` [Example 473, 6-Methyl-4-[(1-methylcyclopropyl)amino]-N-[1-(pyrimidin-2-yl)-1H-pyrazol-4-yl]furo[2,3-d]pyrimidine-5-carboxamide] yielded an IC50 of 10 to 100 nM.

In the case of `CCC(NC(=O)c1c(C)oc2ncnc(NC3(C)CC3)c12)c1ccc(OC)cc1` (stereo not drawn) [Example 475, N-[1-(4-Methoxyphenyl)propyl]-6-methyl-4-[(1-methylcyclopropyl)amino]furo[2,3-d]pyrimidine-5-carboxamide], the “PDE1b (pIC50)” value is reported as greater than 8.

In the case of `COc1ccc(CNC(=O)c2c(C)oc3ncnc(NC4(C)CC4)c23)cc1F` [Example 483, N-[(3-Fluoro-4-methoxyphenyl)methyl]-6-methyl-4-[(1-methylcyclopropyl)amino]furo[2,3-d]pyrimidine-5-carboxamide], the “PDE1b (pIC50)” value is reported as greater than 8.

`COc1cc(CNC(=O)c2c(C)oc3ncnc(NC4(C)CC4)c23)ccc1O` [Example 487, N-[(4-Hydroxy-3-methoxyphenyl)methyl]-6-methyl-4-[(1-methylcyclopropyl)amino]furo[2,3-d]pyrimidine-5-carboxamide] was tested, and the IC50 was 10 to 100 nM.

For `COc1ccc(CNC(=O)c2c(C)oc3ncnc(NC4(C)CC4)c23)cc1Cl` [Example 488, N-[(3-Chloro-4-methoxyphenyl)methyl]-6-methyl-4-[(1-methylcyclopropyl)amino]furo[2,3-d]pyrimidine-5-carboxamide], the “PDE1b (pIC50)” value was greater than 8.

`CCN(Cc1ccc(OC)cc1)C(=O)c1c(C)oc2ncnc(NC3(C)CC3)c12` [Example 489, N-ethyl-N-[(4-Methoxyphenyl)methyl]-6-methyl-4-[(1-methylcyclopropyl)amino]furo[2,3-d]pyrimidine-5-carboxamide] gave an IC50 of 10 to 100 nM.

Work on `COc1cc(CNC(=O)c2c(C)oc3ncnc(NC4(C)CC4)c23)cc(OC)c1` [Example 495, N-[(3,5-Dimethoxyphenyl)methyl]-6-methyl-4-[(1-methylcyclopropyl)amino]furo[2,3-d]pyrimidine-5-carboxamide] yielded an IC50 of 10 to 100 nM.

Work on `COc1c(C)cnc(CN(C)C(=O)c2c(C)oc3ncnc(NC4(C)CC4)c23)c1C` [Example 498, N-[(4-Methoxy-3,5-dimethylpyridin-2-yl)methyl]-N,6-dimethyl-4-[(1-methylcyclopropyl)amino]furo[2,3-d]pyrimidine-5-carboxamide] yielded an IC50 of 10 to 100 nM.
